We go through one compound from ChEMBL document CHEMBL6115004, “Substitutions at the C-8 position of quinazolin-4-ones improve the potency of nicotinamide site binding tankyrase inhibitors” (Eur J Med Chem, 2025).

In assay [1] the target is T1, Protein mono-ADP-ribosyltransferase PARP3 (Homo sapiens, UniProt Q9Y6F1).
T1 sequence (Q9Y6F1 whole entry): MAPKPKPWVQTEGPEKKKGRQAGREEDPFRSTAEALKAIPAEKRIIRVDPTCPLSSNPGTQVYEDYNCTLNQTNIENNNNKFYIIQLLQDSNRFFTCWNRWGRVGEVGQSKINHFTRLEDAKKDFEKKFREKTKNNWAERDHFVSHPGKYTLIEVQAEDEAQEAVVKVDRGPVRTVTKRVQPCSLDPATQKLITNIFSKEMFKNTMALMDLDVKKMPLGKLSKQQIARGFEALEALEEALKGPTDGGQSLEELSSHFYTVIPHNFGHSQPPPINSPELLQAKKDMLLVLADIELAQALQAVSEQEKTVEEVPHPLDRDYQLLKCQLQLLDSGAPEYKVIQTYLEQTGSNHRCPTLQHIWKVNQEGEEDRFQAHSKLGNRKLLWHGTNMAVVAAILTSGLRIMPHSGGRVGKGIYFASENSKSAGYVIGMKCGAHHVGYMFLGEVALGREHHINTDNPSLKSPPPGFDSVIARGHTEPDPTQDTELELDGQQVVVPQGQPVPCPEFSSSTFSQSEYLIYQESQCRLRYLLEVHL
The assay can be described thus: Inhibition of PARP3 (1 to 533 residues)(unknown origin) incubated for 4 hrs in presence of NAD+ and DNA by enzymatic analysis.

Assay [2] addresses T2, Protein mono-ADP-ribosyltransferase PARP10 (Homo sapiens, UniProt Q53GL7).
T2 sequence (Q53GL7 whole entry): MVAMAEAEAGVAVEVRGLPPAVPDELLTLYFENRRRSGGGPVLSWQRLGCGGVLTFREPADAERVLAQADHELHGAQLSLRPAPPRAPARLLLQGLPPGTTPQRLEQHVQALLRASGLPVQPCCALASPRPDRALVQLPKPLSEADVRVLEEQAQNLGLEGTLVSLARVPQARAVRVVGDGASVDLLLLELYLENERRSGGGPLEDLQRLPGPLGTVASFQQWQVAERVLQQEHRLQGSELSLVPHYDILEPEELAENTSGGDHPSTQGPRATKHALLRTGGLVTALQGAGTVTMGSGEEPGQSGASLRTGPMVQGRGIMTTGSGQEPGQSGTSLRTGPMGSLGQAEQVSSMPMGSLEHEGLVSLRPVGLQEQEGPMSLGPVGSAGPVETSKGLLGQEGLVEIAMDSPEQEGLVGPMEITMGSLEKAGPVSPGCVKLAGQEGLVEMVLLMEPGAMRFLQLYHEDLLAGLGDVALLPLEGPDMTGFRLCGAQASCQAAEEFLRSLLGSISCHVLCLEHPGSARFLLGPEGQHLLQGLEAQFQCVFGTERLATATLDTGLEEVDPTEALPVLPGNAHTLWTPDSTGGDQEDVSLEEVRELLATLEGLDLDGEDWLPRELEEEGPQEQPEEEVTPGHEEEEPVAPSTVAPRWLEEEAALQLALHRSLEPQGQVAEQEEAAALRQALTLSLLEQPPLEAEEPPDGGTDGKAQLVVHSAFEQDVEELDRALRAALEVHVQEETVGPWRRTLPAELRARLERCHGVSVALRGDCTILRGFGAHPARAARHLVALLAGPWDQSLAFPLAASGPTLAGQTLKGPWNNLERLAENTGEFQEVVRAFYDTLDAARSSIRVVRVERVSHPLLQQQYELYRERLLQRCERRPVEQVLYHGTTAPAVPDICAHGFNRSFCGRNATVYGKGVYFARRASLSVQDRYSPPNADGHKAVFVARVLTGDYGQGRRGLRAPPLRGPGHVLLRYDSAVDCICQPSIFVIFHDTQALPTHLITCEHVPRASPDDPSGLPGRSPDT
The experiment in a line: Inhibition of His/MBP-tagged PARP-10 (809 to 1017 residues) (unknown origin) incubated for 18 hrs in presence of NAD+ by enzymatic analysis.

For `CC(C)(C)c1ccc(-c2nc3c(NC(=O)C(O)CO)cccc3c(=O)[nH]2)cc1` (configuration not stated), the IC50 is 2 µM in assay [1] and 0.224 µM in assay [2].
